Values joined by “and” are separate entries in the source; they are usually repeats but may differ in a detail not shown here. Identical values can stand only once. “Also recorded” adds a separate entry of the source. Like-named read-outs stand apart in the source and are kept apart here. Marks after values point to notes of the source that are not given here.
Columns and labels:
[1] = in vivo; cited from earlier work
[2] = test system: high fat diet induced obese (DIO) mouse model; experiment: 4-week study of DA, liraglutide or their combination in high fat diet induced obese (DIO) mice (Example 2); assay type: in vivo
Procedure: After arrival at the testing facility, all animals were acclimated to the vivarium for a period no less than 3 days and placed on a 60% Fat Rodent Diet (D12492; Research Diets), 12:12 dark/light cycle and group housed, 2-3 in hepa-filtered cages. All treatments were continued for four weeks. During the study period, gross observation (animal behavior and clinical signs) was conducted, and body weight measurement was performed three times per week for each animal. At the end of the study, all animals were fasted overnight before measurements were taken for serum levels of glucose, insulin, hemoglobin A1c (HbA1c), low-density lipoprotein (LDL) cholesterol, high-density lipoprotein (HDL) cholesterol, triglyceride (TG), and bile acid (BA). Statistical analysis of data was performed using one tail Student's t-test on Excel.

[3] = test system: gut peptide hormones GLP-1, GLP-2 and PYY; experiment: Phase 1 clinical trial of DA: gut peptide hormones before and one hour after a single oral dose (Example 3); assay type: in vivo, human; conditions: in words, single dose DA 240 mg tablet vs placebo
Procedure: This Example provides data of three gut peptide hormones from a phase 1 clinical trial of denatonium acetate after a single dose of DA at 240 mg in a tablet in the formulation disclosed herein. The subjects were either placebo or 240 mg DA and blood samples were taken just prior to dosing and one hour after oral dosing.

[4] = test system: high-fat diet-induced obese (DIO) mice; assay type: in vivo; conditions: in words
Procedure: This Example provides the results from an in vivo study of denatonium acetate and sitagliptin in high-fat diet-induced obese (DIO) mice. C57BL/6NTac mice (at least 12 weeks of age) were fed with a high fat diet. All mice were dosed orally by gavage as (a) Vehicle group (N=15) dosed with distilled water BID, (b) DA group (N=15) dosed at 75 mg/kg (denatonium weight) BID; (c) sitagliptin group (N=15) dosed by gavage with 10 mg/kg QD; and (d) DA+ sitagliptin group (N=15) treated with DA at 75 mg/kg (denatonium based weight) BID and sitagliptin at 10 mg/kg by gavage QD. The groups were dosed for 8 weeks followed by a 5-7 day […] period. Body weight and body weight changes were measured three times per week. Serum biomarker levels for blood glucose (after fasting 6-8 hours), blood insulin, percentage of blood HvA1c, HDL, LDL, total triglycerides (TG), total cholesterol (TC) and bile acid were measured twice during the study at day 28 and at the end (day 56) of the study. Cumulative food intake and water consumption for each animal was measured.

[5] = human, in vivo, po
Text: Accordingly, the gut peptide hormone data in both the in vivo studies in the examples herein and the phase 1 clinical trial data in Example 3 show synergy for the treatment and/or management of glucagon-related diseases, disorders or conditions, various indications. […] The clinical data also corroborated the DIO mouse data (Example 2). Yet, the marketers of GLP-1 agonists (like those available from Novo Nordisk, Lilly) claim only GLP-1 is important for both diabetes and weight loss. Also, DPP-4 is an enzyme that degrades GLP-1 and PYY to give both of those hormones short half-lives. Accordingly, in some embodiments herein, a DPP-4 inhibitor is used as part of the API combination.
Therefore, both the pharmacokinetic data in a clinical trial (Example 3) for DA and the pharmacokinetic data published for commercially-marketed sitagliptin, support non-cumulative toxicity risk. Accordingly, DPP-4i drugs and the denatonium salts listed herein are an effective oral combination for the treatment of obesity.
For sitagliptin as a single agent, the current guidelines indicate a daily dose of 100 mg PO QD (notwithstanding for those with renal impairment, recommended doses can be as low as 25 mg to 50 mg PO QD). […] In view of DA's pharmacokinetics (substantial gut restriction) and relatively non-toxic nature, the optimal dose ranges can be safely adjusted higher. […]

[6] = test system: AMLN-diet induced mice (fatty liver disease/NASH model); assay type: in vivo; conditions: in words
Text: This Example provides the results obtained from an in vivo mouse model of fatty liver disease treatment to investigate the therapeutic effect of DA on the treatment of NASH versus positive control semaglutide (a GLP-1 agonist marketed drug for lowering HbA1c). This study used a positive control semaglutide, a vehicle control, study drug DA and a combination of semaglutide and DA. Mouse strain (B6 mice) was used, and the animals were already adults (23 weeks old) when the study began because the animals were already fed an AMLN diet for 17 weeks prior to the study being initiated. The study dose began at 75 mg/kg BID.
The study included 3 groups of 10 mice each, (A) vehicle control with distilled water by gavage BID, (B) DA by gavage BID, and (C) semaglutide […] sc QD. Body weights and changes were measured 3× per week. Serum metabolic markers (blood glucose, blood insulin, HbA1c, HDL, LDL triglycerides and bile acids) were measured at beginning of dosing (baseline) and end of study. At the end of the study, histopathology of liver samples and serum levels of inflammatory biomarkers (IL-6, TNFα, CK-18 and TGF-β) were evaluated. Histopathology was performed blindly with a scoring scale according to NAFLD Activity Score and Fibrosis Score according to Table 13. Table 14 identifies the kits and equipment used to measure serum parameters.

[7] = Appetite suppression effect of DA in animals; assay type: in vivo
Text: Thus, twice daily dosing is preferred for abrogation of appetite throughout the day. […] Therefore, the preferred dosing for MetS treatment is QD.

ob/ob mice = experiment: DA in ob/ob mice fed with high-fat diet, 8 weeks (Table 10); assay type: in vivo, mouse; conditions: DA 50 mg/kg BID for 8 weeks
Text: The data for the DPP-4 inhibitors was obtained from J. Clin. Biochem. Nutr. 2015; 57(3):244-53. Acta Pharmacol. Sin. 2012; 33(8): 1013-22. J. Pharmacol. Exp. Ther. 2012; 342(1): 71-80; and Eur. J. Pharmacol. 2008; 588(2-3):325-32.

[8] = test system: C57Bl/6J mice fed with high-fat diet; experiment: DA in C57Bl/6J mice fed with high-fat diet, 8 weeks (Table 11); assay type: in vivo, mouse
Text: Similarly, Table 11 provides a comparison of denatonium acetate (DA) with DPP-4 inhibitors in similar ob/ob mice model. The data for the DPP-4 inhibitors was obtained from Am. J. Physiol. Endocrinol. Metab. 2011; 300(2); E410-E421. Biochim. Biophys. Acta Gen. Subj. 2018; 1862(3):403-413. PLOS One. 2012; 7(6):e38744; and Aging Cell. 2019; 18(2):e12883.

[9] = in vivo; cited from earlier work; remark: listed apart in the source
[10] = pig, in vivo; cited from earlier work
[11] = each animal, end of study (Day 31), DA 75 mg/kg PO BID, liraglutide 200 μg/kg SC BID, 4-week dosing
[12] = group mean, end of study (Day 31), DA 75 mg/kg PO BID, liraglutide 200 μg/kg SC BID, 4-week dosing
[13] = in words, vs vehicle, Day 31, DA 75 mg/kg PO BID, liraglutide 200 μg/kg SC BID
[14] = in words, Day 31, 4-week dosing

O=C1[C@H](CC[C@H](O)c2ccc(F)cc2)[C@@H](c2ccc(O)cc2)N1c1ccc(F)cc1 [Ezetimibe]
reduction of LDL cholesterol [1]: about 18%

CC(=O)[O-].CC[N+](CC)(CC(=O)Nc1c(C)cccc1C)Cc1ccccc1 [DA, denatonium acetate]
Body Weight Gain [2, 11]: 10.1 g and 6.7 g and 7.2 g (3×) and 9.6 g (2×) and 7.4 g and 5.2 g and 7 g and 8.1 g and 6.9 g and 11.2 g and 4.5 g and 7.5 g
Serum TG Level [2, 11]: 13.06 mmol/L and 13.49 mmol/L and 11.69 mmol/L and 13.35 mmol/L and 18.18 mmol/L and 14.27 mmol/L and 15.38 mmol/L and 12.93 mmol/L and 15.46 mmol/L and 19.24 mmol/L and 11.73 mmol/L and 15.13 mmol/L and 13.72 mmol/L and 13.59 mmol/L and 15.48 mmol/L
Body Weight Gain, Mean [2, 12]: 7.69 g
Serum TG Level, Mean [2, 12]: 14.45 mmol/L
serum BA level ([2]; in words, vs vehicle control, Day 31, 4-week dosing): significant increase in serum BA level
Body Weight Gain [2, 13]: significantly reduced
Serum TG Level [2, 13]: significantly decreased serum TG level
serum HbA1c level [2, 14]: did not show significant effect
serum LDL level [2, 14]: no significant difference in serum LDL level
serum glucose level [2, 14]: significantly decreased serum glucose level
serum insulin level [2, 14]: considerably decreased serum insulin level
percent change for GLP-1 between time 0 and one hour after oral dosing [3]: the difference was significant
GLP-2 gut peptide hormone ([3]; one hour after dosing): trend for GLP-2 gut peptide hormone increase
PYY gut peptide hormone ([3]; one hour after dosing): trend for PYY gut peptide hormone increase
fasting blood glucose levels ([4]; vs vehicle controls, day 28 and day 56): significantly decreased fasting blood glucose levels
high-density lipoprotein (HDL) levels ([4]; vs vehicle controls, day 56 (FIG. 22B)): significantly decreased high-density lipoprotein (HDL) levels
weight loss ([4]; 56-day study summary): significant weight loss; also recorded: statistically significant reduction of weight in the DA group versus the sitagliptin group
effect on body weight (relative body weight percentage and relative body weight change) ([4]; DA 75 mg/kg BID, sitagliptin 10 mg/kg QD by gavage, 8 weeks): much greater effect on body weight
effect on body weight ([4]; day 56): significant effect on body weight
translationally relevant biomarkers (blood glucose, HbA1C, insulin, triglycerides, LDL cholesterol, total cholesterol) ([4]; relative to sitagliptin alone): superior benefit relative to sitagliptin alone
gut-restricted [5]: ~99%
safe dosing in phase 1 clinical trial [5]: safely dosed to 240 mg PO BID
NAFLD Activity Score based on blinded histopathologic review ([6]; 12 weeks, DA 75 then 50 mg/kg BID by gavage, semaglutide 10 mmol/kg sc QD): significantly improved NAFLD Activity Score
body weight and body weight change ([6]; 12 weeks, DA 75 then 50 mg/kg BID, semaglutide 10 mmol/kg sc QD): remarkable effect on body weight
HDLs ([6]; end of study): significantly decreased
LDLs ([6]; end of study): significantly decreased
TGs ([6]; end of study): significantly decreased
duration of observed appetite suppression effect [7]: about 8 hours
Control-adjusted Percent Change in Fasting Blood Glucose (ob/ob mice): −29.3%*
Control-adjusted Percent Change in HbA1c Level (ob/ob mice): +0.8%
Control-adjusted Percent Change in Insulin Level (ob/ob mice): +4.3%
Control-adjusted Percent Change in LDL Level (ob/ob mice): −27.5%*
Control-adjusted Percent Change in TG Level (ob/ob mice): −21.2%*
Control-adjusted Percent Change in Body Weight Gain ([8]; DA 75 mg/kg BID for 8 weeks): −33.9%*
Control-adjusted Percent Change in Fasting Blood Glucose ([8]; DA 75 mg/kg BID for 8 weeks): −5.3%
Control-adjusted Percent Change in GLP-1 Level ([8]; DA 75 mg/kg BID for 8 weeks): +27.5%*
Control-adjusted Percent Change in Insulin Level ([8]; DA 75 mg/kg BID for 8 weeks): −42.9%
Control-adjusted Percent Change in Lipid Levels: LDL ([8]; DA 75 mg/kg BID for 8 weeks): −18.3% in LDL
Control-adjusted Percent Change in HbA1c Level ([8]; DA 75 mg/kg BID, at the end of Week 4): −3.7%* (at the

PYY: gut peptide hormone released from L-cells
half-life [9]: 9 to 14 min

PYY (3-36): DPP-4 cleaved form of the gut peptide hormone PYY
half-life [10]: < 30 min

From US20240216476A1, “COMBINATION OF BITTER RECEPTOR AGONIST AND GUT-SIGNALING COMPOUND” (AARDVARK THERAPEUTICS, INC., priority 2021, published 2024)
